These results are taken from patent publication US20150239864A1, “3H-1,2-DITHIOCYCLOPENTENE-3-THIOKETONE COMPOUNDS AND APPLICATION THEREOF” (Soochow University, priority 2012, published 2015).

The test system of one assay is HT22 cells. Briefly: Glutamate-induced neural oxidative stress injury model in HT22 cells, survival by MTT. The conditions noted are these: 5 mM glutamate added with compound at 1, 10, 50 or 100 μM, MTT after 24 h. The assay is classed as cell-based, Mouse. How it is done: Mouse Hippocampal neuron cell line HT22, 24-well culture plate (Corning), glutamic acid (Glutamate, Sigma), DMEM culture medium (GIBCO), fetal bovine serum (GIBCO), 3-(4,5-dimethylthiazol-2-yl)-2,5-diphenyltetrazolium bromide (MTT, Sigma), dimethyl sulfoxide (Sinopharm Group. Co. Ltd.), and microplate reader (TECAN).
2.1. Cell culture: HT22 cells were taken out of the liquid nitrogen container, and thawed quickly in a water-bath at 37° C. After that, the outside wall of cryopreservation tube was disinfected by alcohol wipes, and it was then placed in a clean bench. The cells were transferred to a centrifuge tube containing 10 ml medium and centrifuged at 1000 rpm for 3 min. After centrifugation, the supernatant was discarded, and 10 mL DMEM containing 10% FBS was added to the centrifuge tube. The mixture was vigorously pipetted to prepare a cell suspension. The cell suspension was inoculated to a 100×20 mm Petri dish. Cells were cultured at 37° C. and 5% CO2. When the cell density reached confluent, the cells were digested and seeded onto the wells of a 24-well plate at the density of 2×10^4/well.
2.2. Treatment and groups: after the cells were cultured in the 24-well plate for 24 hours, 5 mM glutamate was added together with the compound each synthesized in Example 1-10 or Example 13 at a final concentration of 1, 10, 50, or 100 μM. DMSO served as vehicle and was added to the cells of the control group at an equal volume. The viability of the cells was detected by MTT method 24 h after the treatment.
2.3. Detection by MTT: 50 μL, 0.5 mg/ml MTT was added to each well 24 h after the treatment of cells. The cells were further incubated at 37° C. and 5% CO2 for 4 h. Subsequently, the supernatant was discarded. The cells were lysed by adding 500 μL dimethyl sulfoxide (DMSO). The absorbance was detected at 570 nm by a microplate reader, which is positively correlated with survival rate of cells. The survival rate of the cells in the treatment groups was expressed as the percent of the survival rate of the cells without glutamate treatment. All data were expressed as mean±standard deviation (SD). Statistical analysis was carried out for all data using SPSS 17.0. The difference between the groups was tested by one way anova. P<0.01 was considered as very significant difference.

A further assay relates to microglia cell line BV2. The experiment in a line: LPS-induced inflammatory response of microglia, nitrite by Griess reagent. The assay is classed as cell-based. The conditions noted are these: 200 ng/mL LPS, 24 h, compound at 10-100 μM, vs LPS alone, p<0.01. How it is done:
Brain microglia cell line BV-2, 96-well culture plate (Corning, USA), DMEM medium (Hyclone, USA), fetal bovine serum (FBS) (GIBCO, USA), dimethyl sulfoxide (DMSO) (SIGMA, USA), Griess reagent (SIGMA, USA), sodium nitrite (ChemNet, China), microplate reader (BIO-RAD, USA)
2.1. Cell cultures: After taken out of the liquid nitrogen container, BV-2 cells were quickly placed in warm water at 37° C. and gently shaken for thawing. Subsequently, it was centrifuged at 1000 rpm for 3 min, and the supernatant was discarded. […] When 60%-70% of confluence of the passaged cells was achieved, the cells were harvested by centrifugation at 1000 rpm for 3 min. The cells were then stained by trypan blue and counted under a microscope by globulimeter. After cell counting, it was diluted into a suspension containing 150 to 200 thousand of cells/ml, which was then plated in the 96-well plate (15 to 20 thousand of […]).
2.2. Treatment and groups: after the cells were cultured in the […] for 24 h, 200 ng/mL LPS was added together with compound YC1-1 of Example 1, YC1-8 of Example 8 and YC2-2 of Example 12 at a final concentration of 1, 10, 50, or 100 μM. DMSO served as vehicle and was added to the cells of control group at the equal volume. The cells were further incubated in an incubator.
2.3. The amount of nitrite produced was detected 24 h after the atreatment, to characterize the inflammatory response of BV2 cells induced by LPS and the inhibitory effect of compound YC1-1 of Example 1 and compound YC1-8 of Example 8 on the LPS-induced inflammatory response.
Detection method of nitrite: […], supernatant was taken out of the wells of 96-well plate, and added to the corresponding wells of another clean 96-well plate. Subsequently, 50 μL Griess reagent was added to each well, and the OD value was detected at 570 nm. The amount of nitrite was calculated based on the standard curve. The result was expressed as the relative yield of nitrite, wherein the relative yield of the control group treated only by LPS was designated as 1. All data were expressed as mean±standard deviation (SD). […]
On the technique in general: Griess reagent forms a coloured azo dye with nitrite.

Assay [1] relates to mouse middle cerebral artery occlusion model. Briefly: Mouse middle cerebral artery occlusion (MCAO) model, infarct volume by TTC staining. The assay is classed as in vivo. The conditions noted are these: half at 3 h and half at 10 h of reperfusion, 24 h after MCAO, vs vehicle, p<0.05. How it is done:
Male ICR mice (body weight of 30±2.0 g) were purchased from Shanghai Laboratory Animal Center, Chinese Academy of Sciences. The mice were raised at room temperature and 12 h cycle of light and dark, with free access to food and water.
2.1. Middle cerebral artery occlusion (MCAO) model: the middle cerebral artery occlusion (MCAO) model was performed by reference to Longa's method or other modified suture-occluded method. The specific experimental procedures were as follows: after anaesthetized by isoflurane, the mouse was fixed in supine position, and the skin of neck and head was sterilized using iodine. The probe of laser-Doppler blood flowmeter was fixed at the midpoint of the line between the ear and the eye on the right side of the mouse to monitor the real-time perfusion in the cerebral cortex. A 1.5 cm incision was made in the middle of the neck to expose common carotid artery on the right side. Tissues were separated under an operating microscope layer by layer. The common carotid artery was first separated which was temporarily ligated 0.5 cm away from the distal end using 5-0 suture. Then, the external carotid artery and internal carotid artery on the right side were subsequently separated and the external carotid artery was ligated 0.5 cm away from the distal end using 5-0 suture. At the same time, the internal carotid artery was temporarily clamped using a mini vascular clamp. Subsequently, a small incision was made by an ophthalmic scissor on the inner side of the ligation at the distal end of the external carotid artery. To occlude the […], one of the ends of the suture was slightly enlarged by heating, coated by silica gel, and sterilized using alcohol. The length of the suture was about 2 cm, and the diameter of the enlarged end was […]. The suture was held using a fine forceps and inserted into the incision on the external carotid artery.). Once the suture passed through the incision of the external carotid artery, the ligation was lifted at the distal end of external carotid artery until the enlarged end of the suture entered the bifurcation of the […]. The suture was then tightened, and the vascular clamp on the internal carotid artery was opened. […] The starting time for occlusion was recorded. For reperfusion, the suture was withdrawn 60 min after middle cerebral artery occlusion. The rectal temperature was maintained at 37.0±0.5° C. by a heating blanket during and after the surgery, until the animal was revived.
2.2 Animal groups and drug administration: the animals were randomly divided into 3 groups, including control group treated with vehicle, YC1-8 group (100 mg/kg) and YC1-8 group (50 mg/kg). There were 8 mice in each group. 12 mg YC1-8 was initially dissolved by 80 μL DMSO, and then diluted by 920 μL corn oil to prepare a solution with the final concentration of 12 mg/mL. One half of dosage of compound YC1-8 was initially administrated at 3 h of reperfusion after ischemia by intraperitoneal injection, while the other half of dosage was administrated at 10 h of reperfusion after ischemia. For the control group, the same volume of DMSO-containing corn oil was administrated to the mice at 3 h and 10 h.
2.3. Detection of the cerebral infarct volumes: 24 h after reperfusion following mouse middle cerebral artery occlusion (MCAO), the mice were sacrificed under anesthetized and the brain was collected. After the brain tissue was stripped off, the olfactory bulb and cerebellum were removed. A series of 5 coronary sections of brain were made at an interval of 1 mm, which were then placed in 2% TTC solution at 37° C. under darkness in a warm bath. The sections were turned over every 15 min, with a total duration of 30 min. The size of cerebral infarction was determined by TTC staining method. Due to the reduction of TTC by […] in mitochondrion, normal brain tissue was red, and the ischemic infarct area was white. […]

Turning to `Oc1ccc(-c2cc(=S)ss2)cc1` [YC1-1, 5-p-hydroxyphenyl-3H-1,2-dithiacyclopentene-3-thione], the “Concentration range for protection” value in the assay with HT22 cells lay within 10 to 100 µM. Also, the “LPS induced inflammatory response of BV2 cells (nitrite production)” value (“LPS induced inflammatory response” for short) with microglia cell line BV2 is given as “significantly inhibited”.

On to `Fc1ccc(-c2cc(=S)ss2)cc1` [YC1-2, 5-p-fluorophenyl-3H-1,2-dithiacyclopentene-3-thione], for which, in the assay with HT22 cells, the “Concentration range for protection” value fell in the range of 10 to 100 µM.

As to `S=c1cc(-c2cccs2)ss1` [YC1-3, 5-(2-thienyl)-3H-1,2-dithiacyclopentene-3-thione], in the assay on HT22 cells, the “Concentration range for protection” value fell in the range of 10 to 100 µM.

As to `Cc1ccc(-c2cc(=S)ss2)cc1` [YC1-4, 5-p-methylphenyl-3H-1,2-dithiacyclopentene-3-thione], in the assay on HT22 cells, the “Concentration range for protection” value was in the range of 10 to 100 µM.

For `Fc1cc(-c2cc(=S)ss2)c(Cl)cc1Cl` [YC1-5, 5-(2,4-dichloro-5-fluorophenyl)-3H-1,2-dithiacyclopentene-3-thione], the “Concentration range for protection” value with HT22 cells fell in the range of 1 to 100 µM.

`S=c1cc(-c2ccc3c(c2)OCO3)ss1` [YC1-6, 5-(3,4-methylenedioxyphenyl)-3H-1,2-dithiacyclopentene-3-thione]: the “Concentration range for protection” value with HT22 cells fell in the range of 1 to 100 µM.

Regarding `COc1ccc(-c2cc(=S)ss2)c(OC)c1` [YC1-7, 5-(2,4-dimethoxyphenyl)-3H-1,2-dithiacyclopentene-3-thione], the “Concentration range for protection” value in the assay with HT22 cells was in the range of 1 to 100 µM.

`COc1ccc(-c2cc(=S)ss2)cc1` [YC1-8, 5-p-methoxyphenyl-3H-1,2-dithiacyclopentene-3-thione]: the “Concentration range for protection” value in the assay on HT22 cells fell in the range of 10 to 100 µM. Besides, the “LPS induced inflammatory response” value in the assay on microglia cell line BV2 is listed as “significantly inhibited”. In assay [1] (50 mg/kg YC1-8 i.p.), the “infarction volume in cerebral cortex” value was “significantly reduced”, the “infarction volume in hemisphere” value is listed as “significantly reduced” and the “infarction volume in striatum” value is reported as “significantly reduced”. Further, in assay [1] (100 mg/kg YC1-8 i.p.), the “infarction volume in cerebral cortex” value is given as “significantly reduced”, the “infarction volume in hemisphere” value is “significantly reduced” and the “infarction volume in striatum” value is on record as “significantly reduced”.

With `S=c1cc(-c2ccccc2)ss1` [YC1-9, 5-phenyl-3H-1,2-dithiacyclopentene-3-thione], in the assay on HT22 cells, the “Concentration range for protection” value is 1 to 100 µM.

In the case of `S=c1cc(-c2ccc3ccccc3c2)ss1` [YC1-10, 5-(2-naphthyl)-3H-1,2-dithiacyclopentene-3-thione], the “Concentration range for protection” value with HT22 cells lay in the range of 1 to 100 µM.

Consider `CC(=O)Oc1ccccc1C(=O)Oc1ccc(-c2cc(=S)ss2)cc1` [YC2-2, 4-(3H-1,2-dithio-3-thioketone-5-yl)phenyl 2-acetoxy benzoate], for which the “LPS induced inflammatory response” value with microglia cell line BV2 is reported as “significantly inhibited”.

Turning to `O=C(Oc1ccc(-c2cc(=S)ss2)cc1)c1cccnc1` [YC2-3, 4-(3H-1,2-dithio-3-thioketone-5-yl)phenyl pyridine-3-carboxylate], in the assay with HT22 cells, the “Concentration range for protection” value lay within 50 to 100 µM.
